One series has as its system HL60 cells. In words: CellTiter-Blue cell viability assay. Type of series: cell-based. The settings on record: Homo sapiens. As to the method:
Cell viability studies were conducted using the CellTiter-Blue® (Promega, Madison, WI) assay. Briefly, HL60 cells, were seeded in a 96-well plate and maintained at 37 °C with 5% CO2 for 24 h. The cells were then exposed to test compounds at 11 concentrations ranging from 0 to 20 mM. After 72 h, cell viabilities were then determined according to the manufacturer's instructions.
A general note: Alamar Blue is a resazurin reagent that responds to reducing activity.

For series [1], the target named is T1, MCL-1 (Homo sapiens, UniProt Q07820).
T1 construct: His6-MBP (cleaved yes); made in house; host or cells: E. coli
In words: Fluorescence polarization competition assay (FPCA) with FITC-Bak, MCL-1. Type of series: binding. The following applies: for MCL-1 inhibition in FPCA (in words): cell-free MCL-1 binding assay; for fold better MCL-1 affinity than parent compound 1: relative to compound 1. As to the method: The tagged protein was initially purified from the crude cell lysate by IMAC chromatography (GE Healthcare Life Sciences), and after dialysis to remove the imidazole the affinity tag was cleaved using PreScission Protease (GE Healthcare Life Sciences). A Sephacryl S-200 size exclusion column was used as a final purification step before the protein was concentrated with a 10 000 MWCO centrifugal filter concentrator (Millipore).
(§1) Fluorescence polarization experiments were conducted using a BMG PHERAstar FS multimode microplate reader equipped with two PMTs for simultaneous measurements of the perpendicular and parallel fluorescence emission. The assays were performed in black polypropylene 384-well microplate (Costar) with a final volume of […]. […] For the fluorescence polarization competition titrations, an equation derived by Nikolovska-Coleska et al.[16] was used to calculate the Ki from the IC50 data. All experiments were run in three biological replicates, each in triplicate.

For series [2] the following is noted: cited from earlier work.
The target in series [3] is T1, MCL-1. The following applies: Table 2; FPCA; read-out: K i (MCL-1); cited from earlier work.
Series [4] concerns the target T2, BCL-xL (Homo sapiens, UniProt Q07817).
T2 construct: (or 15 nM Bcl-xL^2-212 (R&D Systems)); b80 says SinBiological
The settings on record: Table 2; FPCA; read-out: K i (BCL-xL); cited from earlier work.

In series [5] the target is T2, BCL-xL. Put plainly: Fluorescence polarization competition assay (FPCA) with FITC-Bak, BCL-xL. Format: binding. The settings on record: for Ki: read-out: K i (BCL-xL). As to the method: BCl-xL was purchased from SinBiological.
as §1
For orientation: Polarisation of emitted light reports the rotation of a fluorescent probe.

The mark [6] stands for this setting: HL-60, 72 h, 10% FBS, 72 h, read-out: HL60 IC50.
Setting [7] is: HL-60, 72 h, […] FBS, 72 h, read-out: HL60 IC50.
The mark [8] stands for this setting: Table 1, FPCA, 100 nM Mcl-1 172-327, 10 nM FITC-Bak, read-out: K i.
[9] abbreviates: Table 2, FPCA, read-out: K i (MCL-1).

Molecules are shown by their SMILES. Read-outs that look alike come from different tables or passages of the source.

T2 sequence (Q07817 2-212): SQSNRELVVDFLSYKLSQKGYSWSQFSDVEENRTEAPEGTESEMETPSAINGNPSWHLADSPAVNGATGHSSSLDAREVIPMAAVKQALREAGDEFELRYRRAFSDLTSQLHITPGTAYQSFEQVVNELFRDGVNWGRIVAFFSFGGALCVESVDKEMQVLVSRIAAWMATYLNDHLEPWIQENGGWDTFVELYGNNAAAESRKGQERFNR
T1 sequence (Q07820 172-327): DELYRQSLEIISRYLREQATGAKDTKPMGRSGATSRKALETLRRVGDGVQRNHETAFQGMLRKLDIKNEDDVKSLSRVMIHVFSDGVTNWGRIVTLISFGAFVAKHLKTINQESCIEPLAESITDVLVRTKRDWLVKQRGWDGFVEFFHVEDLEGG

In general, IC50 refers to the concentration that inhibits the measured activity by half. `CC(C)CN(c1ccc(C(=O)O)c(O)c1)S(=O)(=O)c1ccc(Oc2ccccc2)cc1` [Compound 1]: the IC50 is greater than 120 µM in the series with HL60 cells (setting [6]) and 18.5 µM with HL60 cells (setting [7]).
Turning to `COC(=O)c1ccc(N(CC(C)C)S(=O)(=O)c2ccc(Oc3ccccc3)cc2)cc1O` [Compound 2, Methyl 2-hydroxy-4-(N-isobutyl-4-phenoxyphenylsulfonamido)benzoate], the “MCL-1 inhibition in FPCA (in words)” value on MCL-1 [1] is “inactive”. Further, the Ki at MCL-1 [1] (read-out: K i) was greater than 500 µM. The concentration for half-maximal inhibition (IC50) with HL60 cells (setting [6]) came to 76.4 µM; with HL60 cells (setting [7]) it was 68.1 µM.
For `CC(=O)OCOC(=O)c1ccc(N(CC(C)C)S(=O)(=O)c2ccc(Oc3ccccc3)cc2)cc1O` [Compound 3, Acetoxymethyl 2-hydroxy-4-(N-isobutyl-4-phenoxyphenylsulfonamido)benzoate], in that order: “inactive”, greater than 500 µM, greater than 120 µM and 46.4 µM.
Consider `CC(C)CN(c1ccc(C(=O)NO)c(O)c1)S(=O)(=O)c1ccc(Oc2ccccc2)cc1` [Compound 4, N,2-Dihydroxy-4-(N-isobutyl-4-phenoxyphenylsulfonamido)benzamide], for which the Ki on MCL-1 [1] (setting [8]) amounted to 70.6 ± 5.8 µM. Moreover, the pKa in series [2] (value of the functional group) is listed as 8–9.
With `CC(C)CN(c1ccc(-c2nn[nH]n2)cc1)S(=O)(=O)c1ccc(Oc2ccccc2)cc1` [Compound 5, N-(4-(2H-Tetrazol-5-yl)phenyl)-N-isobutyl-4-phenoxybenzenesulfonamide], the Ki at MCL-1 [1] (setting [8]) stood at 3.29 ± 0.26 µM. The “fold better MCL-1 affinity than parent compound 1” value on MCL-1 [1] is reported as no less than 2 fold. The IC50 in the series on HL60 cells (setting [6]) is greater than 120 µM; with HL60 cells (setting [7]), 15.7 µM. In addition, the pKa in series [2] (value of the functional group) was 4–5.
`CC(C)CN(c1ccc(-c2cc(=O)[nH]o2)cc1)S(=O)(=O)c1ccc(Oc2ccccc2)cc1` [Compound 6, N-Isobutyl-N-(4-(3-oxo-2,3-dihydroisoxazol-5-yl)phenyl)-4-phenoxybenzenesulfonamide]: the “MCL-1 inhibition in FPCA (in words)” value at MCL-1 [1] was “no inhibition”. Also, at MCL-1 [1] (read-out: K i), the Ki is greater than 500 µM. In series [2] (value of the functional group), the pKa is given as 4–5.
For the compound `Cc1cc(Oc2ccc(S(=O)(=O)N(CC(C)C)c3ccc(O)c(C(=O)O)c3)cc2)cc(C)c1Cl` [Compound 6e-OH-5, reference compound], the 50% inhibitory concentration (IC50) is greater than 120 µM in the series on HL60 cells (setting [6]) and 9.82 µM with HL60 cells (setting [7]). Moreover, the values for the Ki at MCL-1 [3] and on BCL-xL [4] were 0.778 ± 0.041 µM and 2.19 ± 0.19 µM, respectively.
As to `CS(=O)(=O)NC(=O)c1ccc(N(Cc2ccccc2)S(=O)(=O)c2ccc(Oc3ccccc3)cc2)cc1O` [Compound 7a, 4-(N-Benzyl-4-phenoxyphenylsulfonamido)-2-hydroxy-N-(methylsulfonyl)benzamide], the values for the Ki at MCL-1 [1] (setting [8]), on MCL-1 [1] (setting [9]) and on BCL-xL [5] were 2.94 ± 0.35 µM, 2.94 ± 0.35 µM and 7.22 ± 1.07 µM, respectively. For the same compound, on MCL-1 [1], the “fold better MCL-1 affinity than parent compound 1” value is no less than 2 fold. In addition, the “fold weaker BCL-xL inhibition than parent compound 17cd” value at BCL-xL [5] (relative to 17cd) was “about 4 fold”.
For the compound `O=C(NS(=O)(=O)c1ccccc1)c1ccc(N(Cc2ccccc2)S(=O)(=O)c2ccc(Oc3ccccc3)cc2)cc1O` [Compound 7b, 4-(N-Benzyl-4-phenoxyphenylsulfonamido)-2-hydroxy-N-(phenylsulfonyl)benzamide], the Ki on MCL-1 [1] (read-out: K i) was determined as 1.95 ± 0.22 µM; on BCL-xL [5], 2.34 ± 0.22 µM. Moreover, on MCL-1 [1], the “fold better MCL-1 affinity than parent compound 1” value was no less than 2 fold. Moreover, the “fold improvement in BCL-xL inhibitory activity” value at BCL-xL [5] (relative to 7a) is given as 3 fold.
Take `O=C(NS(=O)(=O)c1ccc(NCC2CCOCC2)c([N+](=O)[O-])c1)c1ccc(N(Cc2ccccc2)S(=O)(=O)c2ccc(Oc3ccccc3)cc2)cc1O` [Compound 7c, 4-(N-Benzyl-4-phenoxyphenylsulfonamido)-2-hydroxy-N-((3-nitro-4-(((tetrahydro-2H-pyran-4-yl)methyl)amino)phenyl)sulfonyl)benzamide]: the Ki at MCL-1 [1] (setting [9]) worked out at 1.23 ± 0.15 µM; on BCL-xL [5] it was 1.05 ± 0.14 µM.
As for `Cc1cc(Oc2ccc(S(=O)(=O)N(Cc3ccccc3)c3ccc(C(=O)NS(=O)(=O)c4ccc(NCC5CCOCC5)c([N+](=O)[O-])c4)c(O)c3)cc2)cc(C)c1Cl` [Compound 7d, 4-(N-Benzyl-4-(4-chloro-3,5-dimethylphenoxy)phenylsulfonamido)-2-hydroxy-N-((3-nitro-4-(((tetrahydro-2H-pyran-4-yl)methyl)amino)phenyl)sulfonyl)benzamide], the Ki at MCL-1 [1] (setting [9]) came to 0.8 ± 0.07 µM; at BCL-xL [5], 1.82 ± 0.18 µM. Further, the figures for the concentration for half-maximal inhibition (IC50) with HL60 cells (setting [6]) and with HL60 cells (setting [7]) were greater than 120 µM and 7.45 µM, respectively.
As to `CC(C)CN(c1ccc(C#N)c(O)c1)S(=O)(=O)c1ccc(Oc2ccccc2)cc1` [Compound 8, N-(4-Cyano-3-hydroxyphenyl)-N-isobutyl-4-phenoxybenzenesulfonamide], at MCL-1 [1], the “MCL-1 inhibition in FPCA (in words)” value is on record as “no inhibition”. On MCL-1 [1] (read-out: K i), the Ki is greater than 500 µM. In addition, in series [2] (cyanophenol, no reference given), the pKa entry was “about 7”.
As to `Cc1cc(Oc2ccc(S(=O)(=O)N(Cc3ccccc3)c3ccc(C(=O)O)c(O)c3)cc2)cc(C)c1Cl` [Compound 17cd, reference compound], the IC50 came out at 53.2 µM in the series with HL60 cells (setting [6]); 5.79 µM in the series on HL60 cells (setting [7]); 18.5 µM in the series on HL60 cells (HL-60, text of introduction, read-out: IC50, viability of human leukemia HL60 cells).
With `Cc1cc(Oc2ccc(S(=O)(=O)N(Cc3ccccc3)c3ccc(O)c(C(=O)O)c3)cc2)cc(C)c1Cl` [Compound 27, 5-(N-Benzyl-4-(4-chloro-3,5-dimethylphenoxy)phenylsulfonamido)-2-hydroxybenzoic acid], the Ki was 1.4 ± 0.47 µM at MCL-1 [1] (setting [9]) and 1.82 ± 0.23 µM at BCL-xL [5] (Table 2, FPCA, 15 nM Bcl-xL 2-212, 10 nM FITC-Bak).
With `Cc1cc(Oc2ccc(S(=O)(=O)N(Cc3ccccc3)c3ccc(O)c(C(=O)NS(=O)(=O)c4ccc(NCC5CCOCC5)c([N+](=O)[O-])c4)c3)cc2)cc(C)c1Cl` [Compound 29, 5-(N-Benzyl-4-(4-chloro-3,5-dimethylphenoxy)phenylsulfonamido)-2-hydroxy-N-((3-nitro-4-(((tetrahydro-2H-pyran-4-yl)methyl)amino)phenyl)sulfonyl)benzamide], the Ki at MCL-1 [1] (setting [9]) is 1.01 ± 0.08 µM; on BCL-xL [5], 1.54 ± 0.23 µM.

Values taken from PMC10664828, “Tetrazole and acylsulfonamide bioisosteric replacements of the carboxylic acid in a dual MCL-1/BCL-xL inhibitor are tolerated” (RSC Advances, 2023).
